Measured values taken from patent US20020052491A1, “Method for the production of 2-chloro-2' -deoxyadenosine (cladribine) and its 3,5-di-O-p-toluoyl derivative” (priority 1999, published 2002).

What was measured:
[1] = system: Epstein Barr B lymphoblastoid cell lines; assay: in vitro sensitivity, Epstein Barr B lymphoblastoid cell lines; format: cell-based; settings: 50% growth inhibition, no source mark printed, read-out: IC50 (nmol/L)**
Source text: (§1) The in vitro effect of cladribine (2-CdA) has been studied on a number of cell lines, showing different degrees of sensitivity, represented by the IC50 value (concentration required to inhibit 50% of growth) on a case-by-case basis.

DAUDI cell line = assay: in vitro sensitivity, DAUDI cell line; format: cell-based; settings: Homo sapiens, 50% growth inhibition, Data Bio Sidus, read-out: IC50 (nmol/L)**
Source text: as §1

[2] = system: Acute lymphoblastic leukemia; settings: drug concentration required to inhibit 50% of growth, read-out: IC50 (nmol/L)**; cited from earlier work
[3] = system: Acute myelogenous leukemia; settings: 50% growth inhibition, read-out: IC50 (nmol/L)**; cited from earlier work
[4] = system: Chronic lymphocytic leukemia; settings: 50% growth inhibition, read-out: IC50 (nmol/L)**; cited from earlier work
Hairy cell leukemia = settings: 50% growth inhibition, read-out: IC50 (nmol/L)**; cited from earlier work
Multiple myeloma cells = settings: cited from earlier work
Non-Hodgkin's lymphoma = settings: 50% growth inhibition, read-out: IC50 (nmol/L)**; cited from earlier work
T cells = settings: 50% growth inhibition, read-out: IC50 (nmol/L)**; cited from earlier work
B cells = settings: 50% growth inhibition, read-out: IC50 (nmol/L)**; cited from earlier work
Normal bone marrow = settings: cited from earlier work
myeloid cells = settings: cited from earlier work
[5] = system: lymphoblastoid leukemia cells; settings: 5 nmol/L; cited from earlier work
[6] = system: cell lines of bone tumors; settings: in vitro; cited from earlier work
[7] = system: human melanoma cell lines; settings: some human melanoma cell lines; cited from earlier work
neuroblastoma cell line = settings: cited from earlier work
[8] = system: granulocyte-macrophage colony forming units and erythrocyte burst forming units; settings: more immature progenitors (granulocyte-macrophage colony forming units and erythrocyte burst forming units); approximately; cited from earlier work
[9] = system: Mature erythroid colony forming units (mBFU-E); settings: cited from earlier work
[10] = system: erythroid colony forming cells (CFU-E); settings: cited from earlier work
[11] = system: T lymphocyte colony forming cells; settings: cited from earlier work
Peripheral lymphocytes = settings: cited from earlier work
myeloid progenitor cell = settings: dose-dependent basis; cited from earlier work
[12] = system: Erythroid progenitor cells; settings: decreases as maturation state rises; cited from earlier work
[13] = system: dividing and non-dividing cells; settings: cited from earlier work
[14] = H-9 proton; cited from earlier work

Nc1nc(Cl)nc2c1ncn2[C@H]1C[C@H](O)[C@@H](CO)O1 [Cladribine, 2-chloro-2′-deoxyadenosine]
IC50 [1]: 200 nmol/L
IC50 (DAUDI cell line): 210 nmol/L
IC50 [2]: 34 nmol/L
IC50 [3]: 20 nmol/L
IC50 [4]: 39 nmol/L
IC50 (Hairy cell leukemia): 31 nmol/L
IC50 (Multiple myeloma cells; Multiple myeloma, 50% growth inhibition, read-out: IC50 (nmol/L)**): 1750 nmol/L
activity on multiple myeloma cells (Multiple myeloma cells; in vitro): low activity
IC50 (Non-Hodgkin's lymphoma): 87 nmol/L
IC50 (T cells): 3 to 338 nmol/L
IC50 (B cells): 6 to 67 nmol/L
granulocyte and macrophage colony formation (Normal bone marrow; 5 nmol/L, normal bone marrow): no effect
IC50 (Normal bone marrow; Normal bone marrow, 50% growth inhibition, read-out: IC50 (nmol/L)**): 15 nmol/L
IC50 (myeloid cells): 5 to 70 nM
thymidine uptake [5]: inhibits
activity on cell lines of bone tumors [6]: low activity
IC37 [7]: 12 to 22 nmol/L
IC50 (neuroblastoma cell line): 60 nM
IC50 [8]: 16 to 20 nM
IC50 [9]: 38 nM
IC50 [10]: 56 nM
concentration needed for a complete inhibition of lymphoid colony formation ([11]; complete inhibition): 1280 nmol/L
T lymphocyte colony forming cells ([11]; dose-dependent basis): inhibits
viability of peripheral lymphocytes (Peripheral lymphocytes; 100 nmol/l during 24 hours, followed by washing): retain viability
cells die (Peripheral lymphocytes; seven-day incubation with 8 nmol/L): 60%
myeloid progenitor cell growth (myeloid progenitor cell): inhibits
sensitivity of erythroid progenitor cells [12]: dose-dependent sensitivity
activity in dividing and non-dividing cells [13]: active

Nc1ncnc2nc[nH]c12 [adenine]
pKa [14]: 9.80
